Measurements from ChEMBL document CHEMBL5042544, “Discovery of a Potent and Selective ATAD2 Bromodomain Inhibitor with Antiproliferative Activity in Breast Cancer Models” (J Med Chem, 2022).

Key:
[1] = molecular target: Bromodomain-containing protein 1 (Homo sapiens) (UniProt O95696); test: Binding affinity to human BRD1 bromodomain assessed as residual activity at 300 nM by BROMOscan method relative to control
[2] = molecular target: SWI/SNF-related matrix-associated actin-dependent regulator of chromatin subfamily A member 4 (Homo sapiens) (UniProt P51532); test: Binding affinity to human SMARCA4 bromodomain assessed as residual activity at 300 nM by BROMOscan method relative to control
Chain of SWI/SNF-related matrix-associated actin-dependent regulator of chromatin subfamily A member 4 (Homo sapiens) (P51532 whole entry, the tested form may be a part): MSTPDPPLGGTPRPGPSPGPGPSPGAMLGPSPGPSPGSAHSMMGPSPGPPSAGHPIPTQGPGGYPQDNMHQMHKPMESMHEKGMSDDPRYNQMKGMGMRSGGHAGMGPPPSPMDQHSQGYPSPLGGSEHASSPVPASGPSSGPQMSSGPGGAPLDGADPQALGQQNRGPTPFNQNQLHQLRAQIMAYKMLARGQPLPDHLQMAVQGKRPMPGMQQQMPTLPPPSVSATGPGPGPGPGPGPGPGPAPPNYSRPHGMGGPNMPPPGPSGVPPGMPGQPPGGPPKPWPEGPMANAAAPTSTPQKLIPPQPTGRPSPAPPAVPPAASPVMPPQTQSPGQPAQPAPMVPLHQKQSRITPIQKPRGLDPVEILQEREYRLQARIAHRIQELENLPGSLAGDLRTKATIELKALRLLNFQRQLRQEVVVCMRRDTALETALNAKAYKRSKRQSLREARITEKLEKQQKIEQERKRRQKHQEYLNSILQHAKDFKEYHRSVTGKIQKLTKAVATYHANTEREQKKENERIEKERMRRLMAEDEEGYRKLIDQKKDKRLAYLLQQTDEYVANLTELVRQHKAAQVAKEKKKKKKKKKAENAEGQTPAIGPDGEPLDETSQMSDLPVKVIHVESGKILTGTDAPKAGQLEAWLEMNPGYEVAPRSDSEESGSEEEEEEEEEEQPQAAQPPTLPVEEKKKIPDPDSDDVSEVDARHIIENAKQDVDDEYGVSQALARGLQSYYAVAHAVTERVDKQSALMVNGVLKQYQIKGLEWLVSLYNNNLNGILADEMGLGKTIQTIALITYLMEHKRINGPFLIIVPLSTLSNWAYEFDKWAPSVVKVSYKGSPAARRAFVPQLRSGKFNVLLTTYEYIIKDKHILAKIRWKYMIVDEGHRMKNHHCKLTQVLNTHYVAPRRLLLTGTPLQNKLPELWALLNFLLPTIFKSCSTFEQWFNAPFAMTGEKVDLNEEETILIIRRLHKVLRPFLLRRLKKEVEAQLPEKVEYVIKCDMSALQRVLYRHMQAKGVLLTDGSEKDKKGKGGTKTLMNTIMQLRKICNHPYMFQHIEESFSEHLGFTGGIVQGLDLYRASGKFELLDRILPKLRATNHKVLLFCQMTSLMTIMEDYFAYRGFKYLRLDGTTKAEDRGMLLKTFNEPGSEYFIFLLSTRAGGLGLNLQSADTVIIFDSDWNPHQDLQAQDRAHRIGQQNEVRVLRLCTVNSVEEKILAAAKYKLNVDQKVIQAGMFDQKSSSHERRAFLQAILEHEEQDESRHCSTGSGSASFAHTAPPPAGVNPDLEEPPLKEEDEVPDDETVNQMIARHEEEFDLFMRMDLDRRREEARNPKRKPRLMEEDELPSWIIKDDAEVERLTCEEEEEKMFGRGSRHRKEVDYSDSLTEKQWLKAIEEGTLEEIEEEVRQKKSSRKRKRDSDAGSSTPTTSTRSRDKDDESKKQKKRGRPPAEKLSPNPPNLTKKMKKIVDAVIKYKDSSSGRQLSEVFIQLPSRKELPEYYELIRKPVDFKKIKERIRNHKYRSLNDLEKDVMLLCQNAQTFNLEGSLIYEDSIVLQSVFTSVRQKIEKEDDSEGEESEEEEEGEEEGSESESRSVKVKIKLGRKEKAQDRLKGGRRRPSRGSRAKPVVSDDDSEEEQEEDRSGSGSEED

[3] = molecular target: ATPase family AAA domain-containing protein 2B (Homo sapiens, UniProt Q9ULI0); test: Binding affinity to human ATAD2B bromodomain assessed as dissociation constant by BROMOscan method
[4] = molecular target: T1, ATPase family AAA domain-containing protein 2 (Homo sapiens, UniProt Q6PL18); test: Displacement of Halo-tagged Histone H3.3 from Nanoluc-ATAD2A BD (962 to 1119 residues) (unknown origin) transfected in human HCT116 cells incubated for 18 hrs by NanoBRET assay; type: cell-based, HCT-116
T1 sequence (Q6PL18 whole entry): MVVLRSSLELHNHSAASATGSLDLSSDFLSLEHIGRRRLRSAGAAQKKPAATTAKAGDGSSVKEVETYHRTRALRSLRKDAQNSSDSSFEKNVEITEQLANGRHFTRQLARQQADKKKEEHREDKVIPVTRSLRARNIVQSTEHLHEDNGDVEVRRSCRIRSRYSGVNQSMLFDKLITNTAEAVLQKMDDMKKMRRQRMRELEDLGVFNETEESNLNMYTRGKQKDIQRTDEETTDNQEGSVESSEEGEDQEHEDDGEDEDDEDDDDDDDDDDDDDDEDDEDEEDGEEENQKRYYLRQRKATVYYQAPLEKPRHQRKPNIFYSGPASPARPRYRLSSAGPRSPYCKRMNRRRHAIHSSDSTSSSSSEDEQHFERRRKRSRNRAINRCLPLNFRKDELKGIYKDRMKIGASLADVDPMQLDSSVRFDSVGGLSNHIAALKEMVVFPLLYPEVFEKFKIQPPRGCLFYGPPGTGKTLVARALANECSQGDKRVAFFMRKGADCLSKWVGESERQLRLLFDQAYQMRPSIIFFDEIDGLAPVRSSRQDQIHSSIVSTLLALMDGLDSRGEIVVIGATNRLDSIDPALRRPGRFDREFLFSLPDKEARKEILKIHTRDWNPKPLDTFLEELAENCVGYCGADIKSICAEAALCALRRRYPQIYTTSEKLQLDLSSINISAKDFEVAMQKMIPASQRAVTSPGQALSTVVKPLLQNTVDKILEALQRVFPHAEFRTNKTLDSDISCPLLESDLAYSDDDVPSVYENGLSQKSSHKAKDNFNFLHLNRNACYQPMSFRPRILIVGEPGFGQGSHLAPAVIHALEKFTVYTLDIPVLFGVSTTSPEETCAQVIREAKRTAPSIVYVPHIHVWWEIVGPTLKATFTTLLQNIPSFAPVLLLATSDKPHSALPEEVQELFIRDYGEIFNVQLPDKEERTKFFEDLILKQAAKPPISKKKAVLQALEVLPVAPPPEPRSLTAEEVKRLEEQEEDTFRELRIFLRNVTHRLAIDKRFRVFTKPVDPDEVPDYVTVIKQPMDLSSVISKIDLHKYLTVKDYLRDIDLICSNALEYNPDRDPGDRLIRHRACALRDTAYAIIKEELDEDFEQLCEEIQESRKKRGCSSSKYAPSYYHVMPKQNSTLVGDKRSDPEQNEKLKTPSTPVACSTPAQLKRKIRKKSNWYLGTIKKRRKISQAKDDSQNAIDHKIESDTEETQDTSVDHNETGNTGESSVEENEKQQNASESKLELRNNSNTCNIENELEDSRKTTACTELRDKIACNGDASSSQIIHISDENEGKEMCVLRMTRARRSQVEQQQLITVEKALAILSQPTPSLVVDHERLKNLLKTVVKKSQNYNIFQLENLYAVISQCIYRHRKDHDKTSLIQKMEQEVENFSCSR

[5] = molecular target: Transcription initiation factor TFIID subunit 1-like (Homo sapiens) (UniProt Q8IZX4); test: Binding affinity to human TAF1L bromodomain 2 assessed as residual activity at 300 nM by BROMOscan method relative to control
[6] = molecular target: T2, Bromodomain testis-specific protein (Homo sapiens, UniProt Q58F21); test: Binding affinity to human BRDT bromodomain 2 assessed as residual activity at 300 nM by BROMOscan method relative to control
[7] = molecular target: Nucleosome-remodeling factor subunit BPTF (Homo sapiens, UniProt Q12830); test: Binding affinity to human FALZ bromodomain by BROMOscan method
Homo sapiens = species on record: Homo sapiens; test: Binding affinity to human ATAD2A assessed as residual activity at 300 nM by BROMOscan method relative to control
[8] = molecular target: Chromatin remodeling regulator CECR2 (Homo sapiens, UniProt Q9BXF3); test: Binding affinity to human CECR2 bromodomain assessed as dissociation constant by BROMOscan method
Chain of Chromatin remodeling regulator CECR2 (Q9BXF3 whole entry): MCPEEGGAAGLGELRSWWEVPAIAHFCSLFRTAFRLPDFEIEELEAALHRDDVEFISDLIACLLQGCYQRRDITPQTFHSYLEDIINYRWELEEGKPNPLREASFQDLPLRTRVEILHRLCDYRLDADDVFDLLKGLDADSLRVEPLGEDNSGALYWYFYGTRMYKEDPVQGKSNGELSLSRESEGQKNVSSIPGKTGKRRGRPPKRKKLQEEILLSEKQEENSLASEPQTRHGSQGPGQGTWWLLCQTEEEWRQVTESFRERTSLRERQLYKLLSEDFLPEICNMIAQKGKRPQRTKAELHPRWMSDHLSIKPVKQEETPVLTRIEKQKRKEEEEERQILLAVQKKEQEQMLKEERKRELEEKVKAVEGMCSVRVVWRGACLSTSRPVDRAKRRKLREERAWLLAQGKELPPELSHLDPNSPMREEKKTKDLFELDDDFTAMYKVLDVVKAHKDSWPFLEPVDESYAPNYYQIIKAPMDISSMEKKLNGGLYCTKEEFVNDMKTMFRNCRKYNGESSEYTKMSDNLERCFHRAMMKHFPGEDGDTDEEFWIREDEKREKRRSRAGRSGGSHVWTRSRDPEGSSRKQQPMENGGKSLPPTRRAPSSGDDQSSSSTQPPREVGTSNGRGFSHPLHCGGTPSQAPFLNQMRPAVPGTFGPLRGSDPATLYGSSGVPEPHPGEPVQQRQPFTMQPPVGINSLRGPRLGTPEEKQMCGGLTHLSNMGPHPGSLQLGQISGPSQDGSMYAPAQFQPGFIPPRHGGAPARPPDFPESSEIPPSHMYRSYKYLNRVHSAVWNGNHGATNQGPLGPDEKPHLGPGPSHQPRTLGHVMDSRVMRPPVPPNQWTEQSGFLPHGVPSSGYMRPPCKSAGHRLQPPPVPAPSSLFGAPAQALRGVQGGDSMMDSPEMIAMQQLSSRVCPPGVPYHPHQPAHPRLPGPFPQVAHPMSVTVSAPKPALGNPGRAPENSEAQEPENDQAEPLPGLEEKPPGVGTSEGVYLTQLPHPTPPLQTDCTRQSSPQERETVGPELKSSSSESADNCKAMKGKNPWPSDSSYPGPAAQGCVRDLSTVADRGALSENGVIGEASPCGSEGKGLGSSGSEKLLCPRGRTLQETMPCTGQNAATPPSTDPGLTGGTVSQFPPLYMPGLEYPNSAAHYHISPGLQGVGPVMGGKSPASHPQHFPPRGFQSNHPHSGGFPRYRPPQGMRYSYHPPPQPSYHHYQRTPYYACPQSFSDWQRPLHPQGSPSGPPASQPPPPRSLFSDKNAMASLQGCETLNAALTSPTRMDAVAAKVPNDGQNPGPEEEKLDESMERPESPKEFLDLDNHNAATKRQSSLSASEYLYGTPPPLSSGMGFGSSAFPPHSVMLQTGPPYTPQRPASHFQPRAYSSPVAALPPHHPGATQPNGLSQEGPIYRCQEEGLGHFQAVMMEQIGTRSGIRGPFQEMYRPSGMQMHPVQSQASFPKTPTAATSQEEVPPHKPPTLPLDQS

[9] = molecular target: Histone acetyltransferase KAT2A (Homo sapiens) (UniProt Q92830); test: Binding affinity to human GCN5L2 bromodomain assessed as residual activity at 300 nM by BROMOscan method relative to control
Chain of Histone acetyltransferase KAT2A (Homo sapiens) (Q92830 2-837 limits assumed): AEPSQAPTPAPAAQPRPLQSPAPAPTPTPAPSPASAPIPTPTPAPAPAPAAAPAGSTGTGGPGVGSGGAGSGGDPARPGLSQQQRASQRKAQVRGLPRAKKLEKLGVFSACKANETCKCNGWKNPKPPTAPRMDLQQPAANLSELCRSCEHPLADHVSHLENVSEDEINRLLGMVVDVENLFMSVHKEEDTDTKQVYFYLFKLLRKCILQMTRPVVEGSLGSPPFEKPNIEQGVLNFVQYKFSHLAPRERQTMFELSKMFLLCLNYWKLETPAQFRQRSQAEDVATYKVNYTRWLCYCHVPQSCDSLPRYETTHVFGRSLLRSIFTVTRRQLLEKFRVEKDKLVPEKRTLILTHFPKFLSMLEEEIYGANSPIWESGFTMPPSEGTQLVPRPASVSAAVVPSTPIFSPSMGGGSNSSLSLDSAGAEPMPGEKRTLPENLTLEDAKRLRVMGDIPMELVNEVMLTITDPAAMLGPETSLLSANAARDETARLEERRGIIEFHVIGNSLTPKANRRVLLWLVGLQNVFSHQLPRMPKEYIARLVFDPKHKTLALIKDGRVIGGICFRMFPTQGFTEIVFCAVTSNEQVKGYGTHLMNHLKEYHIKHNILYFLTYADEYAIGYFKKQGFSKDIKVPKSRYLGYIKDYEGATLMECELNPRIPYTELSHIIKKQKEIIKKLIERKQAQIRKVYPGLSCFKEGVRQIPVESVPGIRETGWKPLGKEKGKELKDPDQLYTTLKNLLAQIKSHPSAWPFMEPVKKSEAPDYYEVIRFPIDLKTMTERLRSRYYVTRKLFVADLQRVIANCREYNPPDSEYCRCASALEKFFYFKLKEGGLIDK

[10] = molecular target: Histone acetyltransferase KAT2B (Homo sapiens, UniProt Q92831); test: Binding affinity to human PCAF bromodomain assessed as residual activity at 300 nM by BROMOscan method relative to control
[11] = molecular target: T1, ATPase family AAA domain-containing protein 2; test: Displacement of Halo-tagged Histone H3.3 from Nanoluc-ATAD2 BD (962 to 1119 residues) (unknown origin) transfected in human HCT116 cells incubated for 18 hrs in presence of efflux inhibitor reversan by NanoBRET assay; type: cell-based, HCT-116
[12] = molecular target: CREB-binding protein (Homo sapiens) (UniProt Q92793); test: Binding affinity to human CREBBP bromodomain assessed as residual activity at 300 nM by BROMOscan method relative to control
[13] = molecular target: T2, Bromodomain testis-specific protein; test: Binding affinity to human BRDT bromodomain 1 assessed as residual activity at 300 nM by BROMOscan method relative to control
[14] = molecular target: T1, ATPase family AAA domain-containing protein 2; test: Inhibition of GST-ATAD2 BD (951 to 1132 residues) (unknown origin) expressed in Escherichia coli BL21 (DE3) and biotinylated tetra-acetylated histone H4 peptides as substrate by TR-FRET artifact assay
[15] = molecular target: Bromodomain and PHD finger-containing protein 3 (Homo sapiens) (UniProt Q9ULD4); test: Binding affinity to human […] bromodomain assessed as residual activity at 300 nM by BROMOscan method relative to control
[16] = molecular target: Bromodomain-containing protein 9 (Homo sapiens, UniProt Q9H8M2); test: Binding affinity to human BRD9 bromodomain by BROMOscan method
[17] = molecular target: Bromodomain-containing protein 4 (Homo sapiens, UniProt O60885); test: Binding affinity to human BRD4 bromodomain 2 assessed as residual activity at 300 nM by BROMOscan method relative to control
[18] = molecular target: Bromodomain adjacent to zinc finger domain protein 2A (Homo sapiens) (UniProt Q9UIF9); test: Binding affinity to human BAZ2A bromodomain assessed as residual activity at 300 nM by BROMOscan method relative to control

Chain of Bromodomain-containing protein 1 (Homo sapiens) (O95696 whole entry): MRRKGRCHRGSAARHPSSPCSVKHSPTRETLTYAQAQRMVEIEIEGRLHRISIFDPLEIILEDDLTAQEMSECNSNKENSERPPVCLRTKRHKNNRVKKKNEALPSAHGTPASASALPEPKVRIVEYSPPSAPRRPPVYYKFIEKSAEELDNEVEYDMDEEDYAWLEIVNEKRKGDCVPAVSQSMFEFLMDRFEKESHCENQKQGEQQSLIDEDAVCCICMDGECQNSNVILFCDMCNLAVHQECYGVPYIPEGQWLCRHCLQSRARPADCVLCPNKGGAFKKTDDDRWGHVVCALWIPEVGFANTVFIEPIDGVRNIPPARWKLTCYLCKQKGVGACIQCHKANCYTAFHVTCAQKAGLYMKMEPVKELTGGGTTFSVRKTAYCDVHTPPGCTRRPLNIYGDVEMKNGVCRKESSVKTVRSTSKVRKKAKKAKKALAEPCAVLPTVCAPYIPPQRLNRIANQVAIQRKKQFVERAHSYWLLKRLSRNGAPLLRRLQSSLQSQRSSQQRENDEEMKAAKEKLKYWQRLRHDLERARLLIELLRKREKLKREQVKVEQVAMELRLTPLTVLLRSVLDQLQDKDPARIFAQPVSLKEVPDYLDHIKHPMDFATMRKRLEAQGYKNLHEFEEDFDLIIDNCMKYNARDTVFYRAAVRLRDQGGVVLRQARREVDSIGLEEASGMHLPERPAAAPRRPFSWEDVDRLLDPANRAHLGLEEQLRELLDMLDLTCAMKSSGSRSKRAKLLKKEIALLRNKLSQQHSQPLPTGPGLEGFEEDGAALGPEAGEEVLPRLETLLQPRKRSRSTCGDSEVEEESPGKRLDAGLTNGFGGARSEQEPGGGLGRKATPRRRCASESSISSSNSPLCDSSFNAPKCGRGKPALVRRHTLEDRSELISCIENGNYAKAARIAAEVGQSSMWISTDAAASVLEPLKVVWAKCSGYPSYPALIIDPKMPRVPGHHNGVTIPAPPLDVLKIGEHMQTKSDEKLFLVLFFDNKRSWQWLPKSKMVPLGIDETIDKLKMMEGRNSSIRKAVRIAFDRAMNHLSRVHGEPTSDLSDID

**Q.** For `Cc1nnc2c(NC3CCN(CC(C)(C)F)CC3)cc(C(=O)N3[C@@H]4c5ccccc5C[C@H]3C(=O)N[C@@H]4C(C)C)nn12`, which Activity [1] is on record?
**A.** 75%

**Q.** And the Activity [2]?
**A.** 80%

**Q.** What about the Kd [3] of the same compound?
**A.** 7.94 nM

**Q.** And the IC50 [4]?
**A.** 126 nM

**Q.** And the Activity [5]?
**A.** 82%

**Q.** What about the Activity [6] of the same compound?
**A.** 71%

**Q.** What about the Kd [7] of the same compound?
**A.** > 316 nM

**Q.** What about the Activity (Homo sapiens) of the same compound?
**A.** 0%

**Q.** What about the Kd [8] of the same compound?
**A.** > 316 nM

**Q.** And the Activity [9]?
**A.** 73%

**Q.** And the Activity [10]?
**A.** 62%

**Q.** And the IC50 [11]?
**A.** 79.4 nM

**Q.** What about the Activity [12] of the same compound?
**A.** 61%

**Q.** What about the Activity [13] of the same compound?
**A.** 48%

**Q.** And the IC50 [14]?
**A.** > 25100 nM

**Q.** And the Activity [15]?
**A.** 66%

**Q.** What about the Kd [16] of the same compound?
**A.** > 316 nM

**Q.** And the Activity [17]?
**A.** 73%

**Q.** And the Activity [18]?
**A.** 82%
